According to the supplement of paper PMC11208160:

Assay: recombinant barcode read abundance after kanamycin selection (control-corrected) (log10(CPM+1)); higher = more efficient recombination; sequences stand for … in AGTGCAGAGAAAATCGGCCAGTTTTCTCTGCCTGCAGTCCGCATGCCGT…AGATTTATGCAGCGGACTGCCTTTCTCCCAAAGTGATAAACCGGACAGTATCATGGACCGGTTTTCCCGGTAATCCGTATTTGCAAGGTTGGTTTCACT; site = the 11-nt target
In short: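 Recombination efficiency comes from barcode counts at recombinant junctions, converted to counts per million, averaged and corrected against the control. Values appear as log10(CPM+1). They were obtained from a pooled E. coli screen in which each oligo paired a target with an IS621 bridge RNA target-binding loop, and cells were plated in duplicate on chloramphenicol/ampicillin LB agar or on chloramphenicol/ampicillin/kanamycin with 0.1 mM IPTG.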
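Further: IS621 recombinase and bridge RNA in Escherichia coli cells.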

Sequence: TAACCTCCTTGGGTTCTAACCTGTTGCCT (site TAACCTACTAG)
- recombinant barcode read abundance (log10): 0.0181

Sequence: TAACCTCCTTGGGTTCTAACCTGTTGCCT (site TAACCTCCTAG)
- recombinant barcode read abundance (log10): 0.444

Sequence: TAACCTCCTTGGGTTCTAACCTGTTGCCT (site TAACCTGCTAG)
- recombinant barcode read abundance (log10): 0.0867

Sequence: TAACCTCCTTGGGTTCTAACCTGTTGCCT (site TAACCTTCTAG)
- recombinant barcode read abundance (log10): 0.127

Sequence: TAACGACCTTGGGTTCTAACCTGTTGCCT (site AAACGACCTAG)
- recombinant barcode read abundance (log10): 0

Sequence: TAACGACCTTGGGTTCTAACCTGTTGCCT (site CAACGACCTAG)
- recombinant barcode read abundance (log10): 0.055

Sequence: TAACGACCTTGGGTTCTAACCTGTTGCCT (site GAACGACCTAG)
- recombinant barcode read abundance (log10): 0.0956

Sequence: TAACGACCTTGGGTTCTAACCTGTTGCCT (site TAACGACCTAG)
- recombinant barcode read abundance (log10): 1.42

Sequence: TAACGGCCTTGGGTTCTAACCTGTTGCCT (site TAACGGCCTAG)
- recombinant barcode read abundance (log10): 0.539

Sequence: TAACGGCCTTGGGTTCTAACCTGTTGCCT (site TACCGGCCTAG)
- recombinant barcode read abundance (log10): 0.504

Sequence: TAACGGCCTTGGGTTCTAACCTGTTGCCT (site TAGCGGCCTAG)
- recombinant barcode read abundance (log10): 0.198

Sequence: TAACGGCCTTGGGTTCTAACCTGTTGCCT (site TATCGGCCTAG)
- recombinant barcode read abundance (log10): 0.0776

Sequence: TAACGTCCTTGGGTTCTAACCTGTTGCGT (site TAACGTACTCC)
- recombinant barcode read abundance (log10): 0.0665

Sequence: TAACGTCCTTGGGTTCTAACCTGTTGCGT (site TAACGTCCTAC)
- recombinant barcode read abundance (log10): 1.4

Sequence: TAACGTTCTTGGGTTCTAACCTGTTGCCT (site TAACGTTCTAG)
- recombinant barcode read abundance (log10): 0.385

Sequence: TAACGTTCTTGGGTTCTAACCTGTTGCCT (site TACCGTTCTAG)
- recombinant barcode read abundance (log10): 0.0273

Sequence: TAAGATCCTTGGGTTCTAACCTGTTGCCT (site TAAGATCCTAG)
- recombinant barcode read abundance (log10): 1.63

Sequence: TAAGATCCTTGGGTTCTAACCTGTTGCCT (site TAGGCTCCTAG)
- recombinant barcode read abundance (log10): 0.0611

Sequence: TAAGCTACTTGGGTTCTAACCTGTTGCTG (site TAAGCCTCTCA)
- recombinant barcode read abundance (log10): 0.0237

Sequence: TAAGCTACTTGGGTTCTAACCTGTTGCTG (site TAAGCTACTCA)
- recombinant barcode read abundance (log10): 0.885

Sequence: TACAATTCTTGGGTTCTAACCTGTTGCAT (site GGGCTCCCTCG)
- recombinant barcode read abundance (log10): 0.0564

Sequence: TACAATTCTTGGGTTCTAACCTGTTGCAT (site TACAATTCTAT)
- recombinant barcode read abundance (log10): 0.03

Sequence: TACAGCCCTTGGGTTCTAACCTGTTGCCT (site TACAGCCCTAG)
- recombinant barcode read abundance (log10): 0.932

Sequence: TACAGCCCTTGGGTTCTAACCTGTTGCCT (site TTCAGCCCTAG)
- recombinant barcode read abundance (log10): 0.183

Sequence: TACAGTACTTGGGTTCTAACCTGTTGCCT (site AACAGTACTAG)
- recombinant barcode read abundance (log10): 0.0317

Sequence: TACAGTACTTGGGTTCTAACCTGTTGCCT (site CACAGTACTAG)
- recombinant barcode read abundance (log10): 0.326

Sequence: TACAGTACTTGGGTTCTAACCTGTTGCCT (site GACAGTACTAG)
- recombinant barcode read abundance (log10): 0.325

Sequence: TACAGTACTTGGGTTCTAACCTGTTGCCT (site TACAGTACTAG)
- recombinant barcode read abundance (log10): 0.291

Sequence: TACATCCCTTGGGTTCTAACCTGTTGCCG (site TACATCCCTAG)
- recombinant barcode read abundance (log10): 0.0934

Sequence: TACATCCCTTGGGTTCTAACCTGTTGCCG (site TACATCCCTCG)
- recombinant barcode read abundance (log10): 0.623

Sequence: TACATCCCTTGGGTTCTAACCTGTTGCCG (site TACATCCCTGG)
- recombinant barcode read abundance (log10): 0.0502

Sequence: TACATCCCTTGGGTTCTAACCTGTTGCCG (site TACATCCCTTG)
- recombinant barcode read abundance (log10): 0.0738

Sequence: TACCAGACTTGGGTTCTAACCTGTTGCCT (site TACCAGACTAG)
- recombinant barcode read abundance (log10): 1.26

Sequence: TACCAGACTTGGGTTCTAACCTGTTGCCT (site TACCCGACTAG)
- recombinant barcode read abundance (log10): 0.033

Sequence: TACCAGACTTGGGTTCTAACCTGTTGCCT (site TACCGGACTAG)
- recombinant barcode read abundance (log10): 0.191

Sequence: TACCAGACTTGGGTTCTAACCTGTTGCCT (site TACCTGACTAG)
- recombinant barcode read abundance (log10): 0.0512

Sequence: TACCCTTCTTGGGTTCTAACCTGTTGCGT (site CCTAAGCCTCA)
- recombinant barcode read abundance (log10): 0.0691

Sequence: TACCCTTCTTGGGTTCTAACCTGTTGCGT (site TACCCTTCTAC)
- recombinant barcode read abundance (log10): 1.84

Sequence: TACCGGACTTGGGTTCTAACCTGTTGCCT (site TACCAGACTAG)
- recombinant barcode read abundance (log10): 0.252

Sequence: TACCGGACTTGGGTTCTAACCTGTTGCCT (site TACCCGACTAG)
- recombinant barcode read abundance (log10): 0.139

Sequence: TACCGGACTTGGGTTCTAACCTGTTGCCT (site TACCGGACTAG)
- recombinant barcode read abundance (log10): 1.56

Sequence: TACCGGACTTGGGTTCTAACCTGTTGCCT (site TACCTGACTAG)
- recombinant barcode read abundance (log10): 0.0144

Sequence: TACCGGTCTTGGGTTCTAACCTGTTGCTT (site TACCAGTCTAA)
- recombinant barcode read abundance (log10): 0.18

Sequence: TACCGGTCTTGGGTTCTAACCTGTTGCTT (site TACCCGTCTAA)
- recombinant barcode read abundance (log10): 0.13

Sequence: TACCGGTCTTGGGTTCTAACCTGTTGCTT (site TACCGGTCTAA)
- recombinant barcode read abundance (log10): 1.46

Sequence: TACCGGTCTTGGGTTCTAACCTGTTGCTT (site TACCTGTCTAA)
- recombinant barcode read abundance (log10): 0.00501

Sequence: TACCTAACTTGGGTTCTAACCTGTTGCTT (site GGTTCCTCTCC)
- recombinant barcode read abundance (log10): 0.206

Sequence: TACCTAACTTGGGTTCTAACCTGTTGCTT (site TACCTAACTAA)
- recombinant barcode read abundance (log10): 0.0655

Sequence: TACCTGCCTTGGGTTCTAACCTGTTGCGT (site GCCCTGCCTAC)
- recombinant barcode read abundance (log10): 0.0159

Sequence: TACCTGCCTTGGGTTCTAACCTGTTGCGT (site TACCTGCCTAC)
- recombinant barcode read abundance (log10): 1.27

Sequence: TACCTGTCTTGGGTTCTAACCTGTTGCTT (site TACCAGTCTAA)
- recombinant barcode read abundance (log10): 0.139

Sequence: TACCTGTCTTGGGTTCTAACCTGTTGCTT (site TACCCGTCTAA)
- recombinant barcode read abundance (log10): 0.251

Sequence: TACCTGTCTTGGGTTCTAACCTGTTGCTT (site TACCGGTCTAA)
- recombinant barcode read abundance (log10): 0.543

Sequence: TACCTGTCTTGGGTTCTAACCTGTTGCTT (site TACCTGTCTAA)
- recombinant barcode read abundance (log10): 1.77

Sequence: TACGACGCTTGGGTTCTAACCTGTTGCCT (site TAAGACGCTAG)
- recombinant barcode read abundance (log10): 0.0663

Sequence: TACGACGCTTGGGTTCTAACCTGTTGCCT (site TACGACGCTAG)
- recombinant barcode read abundance (log10): 0.756

Sequence: TACGACGCTTGGGTTCTAACCTGTTGCCT (site TAGGACGCTAG)
- recombinant barcode read abundance (log10): 0.0186

Sequence: TACGACGCTTGGGTTCTAACCTGTTGCCT (site TATGACGCTAG)
- recombinant barcode read abundance (log10): 0.128

Sequence: TACGATACTTGGGTTCTAACCTGTTGCGT (site CTACGACCTCT)
- recombinant barcode read abundance (log10): 0.0489

Sequence: TACGATACTTGGGTTCTAACCTGTTGCGT (site TACGATACTAC)
- recombinant barcode read abundance (log10): 1.19

Sequence: TACGCTCCTTGGGTTCTAACCTGTTGCGT (site TACGCTCCTAA)
- recombinant barcode read abundance (log10): 0.0715

Sequence: TACGCTCCTTGGGTTCTAACCTGTTGCGT (site TACGCTCCTAC)
- recombinant barcode read abundance (log10): 0.108

Sequence: TACGCTCCTTGGGTTCTAACCTGTTGCGT (site TACGCTCCTAG)
- recombinant barcode read abundance (log10): 0.0936

Sequence: TACGCTCCTTGGGTTCTAACCTGTTGCGT (site TACGCTCCTAT)
- recombinant barcode read abundance (log10): 0.501

Sequence: TACGGTCCTTGGGTTCTAACCTGTTGCTT (site TACGGTCCTAA)
- recombinant barcode read abundance (log10): 1.08

Sequence: TACGGTCCTTGGGTTCTAACCTGTTGCTT (site TAGGCTCCTAA)
- recombinant barcode read abundance (log10): 0.261
